# Values joined by “and” are separate entries in the source; they are usually repeats but may differ in a detail not shown here. Identical values can stand only once. Like-named read-outs stand apart in the source and are kept apart here.
# Legend:
# parental Ba/F3 cells = experiment: CellTiter-Glo cell viability assay; format: cell-based, murine; details: for cell viability: CTG, parental
# [1] = system: pAkt^S473 and downstream targets in Ba/F3 myr-Akt1; details: Ba/F3 myr-Akt1, 4-h treatment
# Ba/F3^myr-Akt1 cells = experiment: CellTiter-Glo cell viability assay; details: for cell viability: CTG
# Experimental: On day 0, cells were plated into white 384-well cell culture plates (Greiner Bio-One) using a Multidrop reagent dispenser (Thermo Fisher Scientific) at cell numbers that ensure linear and optimal luminescent signal intensity (Ba/F3myr-Akt1: 600 cells/well, Ba/F3myr-Akt2: 800 cells/well, Ba/F3myr-Akt3: 800 cells/well). […] Cell viability was analyzed on day 4 using the CellTiter-Glo Assay (Promega) as per the manufacturer’s instructions. […] All experimental points were measured in duplicates for each plate and were replicated in at least three plates.
# Ba/F3^myr-Akt2 cells = experiment: CellTiter-Glo cell viability assay
# [2] = CellTiter-Glo cell viability assay; format: cell-based, murine; details: mouse, CTG, parental, single replicates
# [3] = system: pAkt^S473 and downstream targets in Ba/F3 myr-Akt3; experiment: Western blot analysis, Ba/F3 myr-Akt3 cells; format: cell-based, murine; details: Ba/F3 myr-Akt3, 4-h treatment
# Experimental: Cells were seeded into six-well tissue culture plates (Sarstedt) (BaF3 myr-Akt1/2/3: 10^6 cells/well, PANC1: 250.000 cells/well). After 24 h incubation, cells were treated with various concentrations of inhibitors or DMSO and incubated for additional 4.5 h before cells were washed twice with ice-cold PBS. Cell lysis was initiated by addition of 100 μL RIPA buffer (Cell Signaling Technology) per well supplemented with phosphatase and protease inhibitor cocktails (Sigma) followed by incubation on ice for 20 min. Cells were then harvested by scraping (PANC1) or centrifugation (BaF3). Whole cell lysates were cleared by centrifugation at 14,000×g/4 °C for 10 min and transferred into fresh, pre-cooled microcentrifuge tubes. Protein concentrations were determined using the Pierce BCA protein assay (Thermo) as per manufacturer’s instructions. Equal amounts of protein were separated by SDS-PAGE and transferred to Immobilon-FL PVDF membranes (Merck Millipore) using Pierce™ 1-step transfer buffer (Thermo) and the Pierce™ Power Blotter (Thermo). Membranes were washed for 5 min with ddH2O, blocked with Intercept®Blocking Buffer TBS (Li-Cor) for 1 h at room temperature, and then incubated with primary antibodies diluted in Intercept®Blocking Buffer TBS overnight at 4 °C with gentle agitation. […]
# Ba/F3^myr-Akt3 cells = experiment: CellTiter-Glo cell viability assay; details: for cell viability: CTG
# Akt1 [4] = molecular target: T1, Akt1 (Homo sapiens, UniProt P31749); experiment: STK HTRF KinEASE activity-based assay (IC50)
# Akt2 [5] = molecular target: T2, Akt2 (Homo sapiens, UniProt P31751); experiment: STK HTRF KinEASE activity-based assay (IC50)
# Experimental: The biochemical half maximal inhibitory concentrations (IC50) were determined with the STK HTRF KinEASE assay (Cisbio) according to the manufactor’s instructions. Briefly: 5 µL Kinase solution and 2.5 µL inhibitor solution (8% DMSO in HTRF buffer) were incubated for 1 h before the reaction was started by addition of 2.5 µL starting solution containing ATP and substrate peptide. […] After reaction completion (Akt1: 60 min, Akt2: 20 min, Akt3: 15 min), 10 µL of stop solution were added. […] The quotient of both intensities were recorded at eight different inhibitor concentrations and data fit to a Hill 4-parameter equation with Quattro software suite (Quattro Research GmbH, Martinsried, Germany). Each reaction was performed in duplicates and at least three independent determinations of each IC50 were made.
# Akt3 = Akt3 (Homo sapiens, UniProt Q9Y243); experiment: STK HTRF KinEASE activity-based assay (IC50)
# Akt1 [6] = molecular target: T1, Akt1; experiment: PhosphoSens continuous fluorometric kinetic enzyme assay
# Experimental: (§1) By addition of either 8 nM Akt1, 2 nM Akt2, or 5 nM Akt3 (final concentrations) the reactions were initiated. […] Afterwards the kobs-values were plotted versus the inhibitor concentrations [I] and then fit to the following hyperbolic Eq.
# Akt2 [7] = molecular target: T2, Akt2; experiment: as above
# Experimental: as §1
# [8] = Mus musculus, BaF3, parental cells, mean of replicates, read-out: CTG BaF3, Mean
# [9] = parental cells, single replicates, read-out: CTG BaF3, individual determinations
# [10] = Mus musculus, read-out: CTG BaF3myr-Akt1, Mean, mean of replicates
# [11] = Mus musculus, read-out: CTG BaF3myr-Akt1, individual determinations, single replicates
# [12] = read-out: CTG BaF3myr-Akt1, individual determinations, single replicates
# [13] = Mus musculus, read-out: CTG BaF3myr-Akt2, Mean, mean of replicates
# [14] = read-out: CTG BaF3myr-Akt2, individual determinations, single replicates
# [15] = Mus musculus, read-out: CTG BaF3myr-Akt3, Mean, mean of replicates
# [16] = read-out: CTG BaF3myr-Akt3, individual determinations, single replicates
# [17] = cell viability assay Ba/F3 myr-Akt cells, log units
# T2 sequence (P31751 whole entry): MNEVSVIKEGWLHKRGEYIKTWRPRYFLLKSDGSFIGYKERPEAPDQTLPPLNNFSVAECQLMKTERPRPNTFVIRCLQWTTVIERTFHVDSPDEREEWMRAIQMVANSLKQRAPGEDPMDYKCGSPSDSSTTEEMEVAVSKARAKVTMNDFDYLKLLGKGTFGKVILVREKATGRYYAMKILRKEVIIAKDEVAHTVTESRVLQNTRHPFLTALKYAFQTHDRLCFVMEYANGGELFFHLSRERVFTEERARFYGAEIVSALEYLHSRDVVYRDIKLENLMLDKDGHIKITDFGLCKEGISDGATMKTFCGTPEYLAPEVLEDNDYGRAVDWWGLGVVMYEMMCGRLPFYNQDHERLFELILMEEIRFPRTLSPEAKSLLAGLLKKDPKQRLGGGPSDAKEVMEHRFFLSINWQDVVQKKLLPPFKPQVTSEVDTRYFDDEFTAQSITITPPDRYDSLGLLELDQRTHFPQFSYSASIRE
# Akt3, sequence (Q9Y243 whole entry): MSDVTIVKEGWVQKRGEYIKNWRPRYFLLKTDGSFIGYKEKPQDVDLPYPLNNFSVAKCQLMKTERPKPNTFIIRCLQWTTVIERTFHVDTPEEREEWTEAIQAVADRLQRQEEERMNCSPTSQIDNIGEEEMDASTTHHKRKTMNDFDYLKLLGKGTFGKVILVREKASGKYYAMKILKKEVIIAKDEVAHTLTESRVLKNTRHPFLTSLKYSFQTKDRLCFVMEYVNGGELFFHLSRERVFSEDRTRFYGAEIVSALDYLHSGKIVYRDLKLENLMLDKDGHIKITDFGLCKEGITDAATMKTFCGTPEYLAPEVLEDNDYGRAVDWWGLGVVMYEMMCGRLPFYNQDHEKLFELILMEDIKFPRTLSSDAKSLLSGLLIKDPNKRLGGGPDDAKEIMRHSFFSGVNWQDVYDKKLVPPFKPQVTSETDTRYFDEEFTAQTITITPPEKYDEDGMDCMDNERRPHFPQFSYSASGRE
# T1 sequence (P31749 whole entry): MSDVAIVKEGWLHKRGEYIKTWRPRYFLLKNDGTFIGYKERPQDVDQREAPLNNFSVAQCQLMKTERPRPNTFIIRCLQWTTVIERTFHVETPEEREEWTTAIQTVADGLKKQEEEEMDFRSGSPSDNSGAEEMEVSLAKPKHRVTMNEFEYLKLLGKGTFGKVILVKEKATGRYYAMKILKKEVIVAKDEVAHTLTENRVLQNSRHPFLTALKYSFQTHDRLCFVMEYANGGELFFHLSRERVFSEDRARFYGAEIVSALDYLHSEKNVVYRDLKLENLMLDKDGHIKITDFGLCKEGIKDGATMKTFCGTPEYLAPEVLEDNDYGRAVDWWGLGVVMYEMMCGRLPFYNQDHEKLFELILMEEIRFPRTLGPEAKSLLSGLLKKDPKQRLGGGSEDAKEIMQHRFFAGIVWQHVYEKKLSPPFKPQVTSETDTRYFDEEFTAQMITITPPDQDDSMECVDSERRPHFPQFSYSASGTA
smiles,measurement,setting,value
"NC1(C(=O)N[C@@H](CCO)c2ccc(Cl)cc2)CCN(c2ncnc3[nH]ccc23)CC1 [Capivasertib, reference compound]",EC50,parental Ba/F3 cells; [8],16 µM
same,EC50,parental Ba/F3 cells; [9],11 µM and 13.9 µM and 23 µM
same,pAkt and downstream targets (immunoblot),[1],less effective
same,EC50,Ba/F3^myr-Akt1 cells; [10],1070 nM
same,EC50,Ba/F3^myr-Akt1 cells; [11],1290 nM
same,EC50,Ba/F3^myr-Akt1 cells; [12],706 nM and 1200 nM and 1100 nM
same,EC50,Ba/F3^myr-Akt2 cells; [13],938 nM
same,EC50,"Ba/F3^myr-Akt2 cells; Mus musculus, read-out: CTG BaF3myr-Akt2, individual determinations, single replicates",1140 nM
same,EC50,Ba/F3^myr-Akt2 cells; [14],1070 nM and 600 nM
"C=CC(=O)Nc1ccc2[nH]c(=O)n(C3CCN(Cc4ccc(-c5nc6cc[nH]c(=O)c6cc5-c5ccccc5)cc4)CC3)c2c1 [Borussertib, reference compound]","viability at 3 days, 0.0001 µM","[2]; 0.1 nM, read-out: cell viability",98.5%
same,"viability at 3 days, 5 µM",[2]; 5000 nM,108%
same,cell viability,"parental Ba/F3 cells; 0.1 nM, single replicates, 0.0001 µM",106.4 % of control and 91.0 % of control
same,cell viability,"parental Ba/F3 cells; 5000 nM, single replicates, 5 µM",102.2 % of control and 91.4 % of control
same,EC50,"parental Ba/F3 cells; Mus musculus, BaF3, read-out: CTG BaF3, Mean, parental cells, mean of replicates",20.1 µM
same,EC50,"parental Ba/F3 cells; read-out: CTG BaF3, individual determinations, parental cells, single replicates",16.8 µM and 10.9 µM and 24.4 µM
same,pAkt and downstream targets (immunoblot),[3],dose-dependent reduction of pAkt
same,pAkt and downstream targets (immunoblot),[1],dose-dependent reduction of pAkt
same,cell viability,"Ba/F3^myr-Akt1 cells; myr-Akt1, 0.1 nM, single replicates, 0.0001 µM",99.2 % of control and 105.4 % of control
same,cell viability,"Ba/F3^myr-Akt1 cells; myr-Akt1, 5000 nM, single replicates, 5 µM",3.1 % of control and 7.0 % of control and 4.5 % of control
same,EC50,Ba/F3^myr-Akt1 cells; [10],440 nM
same,EC50,Ba/F3^myr-Akt1 cells; [11],341 nM
same,viability at 0.0001 µM,"Ba/F3^myr-Akt1 cells; Mus musculus, read-out: cell viability, CTG, myr-Akt1, 0.1 nM, single replicates",90%
same,EC50,Ba/F3^myr-Akt1 cells; [12],491 nM and 488 nM
same,cell viability,"Ba/F3^myr-Akt3 cells; myr-Akt3, 0.1 nM, single replicates, 0.0001 µM",96.6 % of control and 95.9 % of control
same,cell viability,"Ba/F3^myr-Akt3 cells; myr-Akt3, 5000 nM, single replicates, 5 µM",70.7 % of control and 65.0 % of control
same,EC50,Ba/F3^myr-Akt3 cells; [15],6.84 µM
same,EC50,"Ba/F3^myr-Akt3 cells; Mus musculus, read-out: CTG BaF3myr-Akt3, individual determinations, single replicates",6.16 µM
same,viability at 5 µM,"Ba/F3^myr-Akt3 cells; Mus musculus, read-out: cell viability, CTG, myr-Akt3, 5000 nM, single replicates",73.8%
same,EC50,Ba/F3^myr-Akt3 cells; [16],6.18 µM and 7.62 µM and 7.38 µM
C=CC(=O)Nc1ccc2[nH]c(=O)n(C3CCN(Cc4ccc(-c5ncc(C(=O)Nc6cccc(N)c6)cc5-c5ccccc5)cc4)CC3)c2c1 [compound 18],EC50,"parental Ba/F3 cells; Mus musculus, BaF3, CTG, parental BaF3 cell line, read-out: EC50 BaF3",> 30 µM
same,EC50,parental Ba/F3 cells; [8],> 30 µM
same,EC50,"parental Ba/F3 cells; Mus musculus, BaF3, parental cells, single replicates, read-out: CTG BaF3, individual determinations",> 30 µM
same,EC50,parental Ba/F3 cells; [9],> 30 µM
same,EC50,Ba/F3^myr-Akt1 cells; [10],17800 nM
same,"Log ratio EC50 [Akt] / EC50 [Akt], Akt1 / Akt2",Ba/F3^myr-Akt1 cells; [17],1.08
same,EC50,Ba/F3^myr-Akt1 cells; [12],14100 nM and 13100 nM and 26300 nM
same,EC50,Ba/F3^myr-Akt2 cells; [13],1480 nM
same,EC50,Ba/F3^myr-Akt2 cells; [14],1640 nM and 2110 nM and 691 nM
same,EC50,Ba/F3^myr-Akt3 cells; [15],18.2 µM
same,"Log ratio EC50 [Akt] / EC50 [Akt], Akt3 / Akt2",Ba/F3^myr-Akt3 cells; [17],-1.09
same,EC50,Ba/F3^myr-Akt3 cells; [16],10.3 µM and 26 µM and 21.5 µM
same,IC50,"Akt1 [4]; HTRF IC50 Akt1, Mean, mean of replicates",90.6 nM
same,IC50,"Akt1 [4]; HTRF IC50 Akt1, individual determinations, single replicates",106 nM and 73.7 nM and 92.3 nM
same,IC50,"Akt1 [4]; IC50 Akt1, HTRF, ATP at KM, 1 h preincubation",91 ± 13 nM
same,"Log ratio IC50 [Akt] / IC50 [Akt], Akt1 / Akt2","Akt1 [4]; biochemical activity based assay, log units",0.37
same,IC50,"Akt2 [5]; HTRF IC50 Akt2, Mean, mean of replicates",38.4 nM
same,IC50,"Akt2 [5]; HTRF IC50 Akt2, individual determinations, single replicates",36.7 nM and 47.9 nM and 40 nM
same,IC50,"Akt2 [5]; IC50 Akt2, HTRF, ATP at KM, 1 h preincubation",39 ± 6 nM
same,IC50,"Akt3; HTRF IC50 Akt3, Mean, mean of replicates",5.27 µM
same,IC50,"Akt3; HTRF IC50 Akt3, individual determinations, single replicates",3.82 µM and 6.13 µM and 5.85 µM
same,IC50,"Akt3; IC50 Akt3, HTRF, ATP at KM, 1 h preincubation",5.27 ± 1.03 µM
same,Ki,Akt1 [6]; Ki Akt1,6 ± 1 nM
same,Ki,"Akt1 [6]; Ki Akt1, Mean, mean of replicates",6.62 nM
same,Ki,"Akt1 [6]; Ki Akt1, individual determinations, single replicates",4.2 nM and 7.8 nM and 7.9 nM
same,kinact/KI,Akt1 [6]; read-out: kinact /Ki Akt1,32000 ± 5000 M⁻¹ s⁻¹
same,kinact/KI,"Akt1 [6]; read-out: kinact /Ki Akt1, Mean, mean of replicates",44000 M⁻¹ s⁻¹
same,kinact,Akt1 [6]; read-out: kinact Akt1,0.000167 s⁻¹
same,kinact,"Akt1 [6]; read-out: kinact Akt1, Mean, mean of replicates",0.000267 s⁻¹
same,kinact,"Akt1 [6]; read-out: kinact Akt1, individual determinations, single replicates",0.000267 s⁻¹
same,"kinact Akt1, individual determinations",Akt1 [6]; single replicates,0.014 min⁻¹ and 0.018 min⁻¹
same,Ki,Akt2 [7]; Ki Akt2,11 ± 2 nM
same,Ki,"Akt2 [7]; Ki Akt2, Mean, mean of replicates",11.3 nM
same,Ki,"Akt2 [7]; Ki Akt2, individual determinations, single replicates",10.1 nM and 10.2 nM and 13.6 nM
same,kinact/KI,Akt2 [7]; read-out: kinact /Ki Akt2,15000 ± 1000 M⁻¹ s⁻¹
same,kinact/KI,"Akt2 [7]; read-out: kinact /Ki Akt2, Mean, mean of replicates",15000 M⁻¹ s⁻¹
same,kinact/KI,"Akt2 [7]; read-out: kinact /Ki Akt2, individual determinations, single replicates",15000 M⁻¹ s⁻¹
same,kinact,Akt2 [7]; read-out: kinact Akt2,0.000167 s⁻¹
same,kinact,"Akt2 [7]; read-out: kinact Akt2, individual determinations, single replicates",0.00015 s⁻¹
same,"kinact Akt2, individual determinations",Akt2 [7]; single replicates,0.009 min⁻¹ and 0.013 min⁻¹
